SMILES strings stand for the structures.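 Cells were grown in 96-well plates and exposed to each compound for 48 hours at five concentrations; endpoints were interpolated linearly between bracketing concentrations, or set to the highest concentration if not reached. At the GI50, growth is halved. TGI denotes the concentration required for complete inhibition of growth.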

Common to all, as to assay: NCI anticancer screen, dose series, 48 h
The test system of assay [1] is U251 CNS.
The test system of assay [2] is KM12 colon.
In assay [3] the test system is MALME-3M melanoma.
Assay [4] deals with CCRF-CEM leukemia.
The subject of assay [5] is RXF 393 renal.
The test system of assay [6] is HL-60(TB) leukemia.
The subject of assay [7] is NCI-H522 lung.
Assay [8] concerns HCC-2998 colon.
Assay [9] concerns CAKI-1 renal.
Assay [10] deals with SF-295 CNS.

`COc1cc(C2=Nc3c/c(=C\c4c(O)[nH]c5ccc(Cl)cc45)ccc3=N2)cc(OC)c1OC`: the GI50 is 1.79 µM in [1]; 3.09 µM in assay [2]; 1.79 µM in assay [3]; 2.29 µM in assay [4]; 2.78 µM in assay [5]; 3.13 µM in [6]. Moreover, the GI50 was 3.17 µM in assay [7], 4.44 µM in assay [8], 5.5 µM in assay [9] and 11.7 µM in assay [10]. Besides, the TGI stood at 3.91 µM in [1]; 12.2 µM in [2]; 3.71 µM in assay [3]; 8.55 µM in assay [4]; 7.38 µM in [5]; 14.6 µM in assay [6]. The TGI stood at 10.7 µM in assay [7], 21.8 µM in assay [8], 27.8 µM in assay [9] and 29.7 µM in assay [10].

As for `C[C@H]1O[C@@H](O[C@H]2[C@@H](O)C[C@H](O[C@H]3[C@@H](O)C[C@H](O[C@H]4CC[C@]5(C)C6C[C@@H](O)[C@]7(C)[C@@H](C8=CC(=O)OC8)CC[C@]7(O)C6CC[C@@H]5C4)O[C@@H]3C)O[C@@H]2C)C[C@H](O)[C@@H]1O` (stereo not given in full), the GI50 in assay [1] was 0.0668 µM; in assay [2], 0.144 µM; in [3] it was 0.115 µM; in assay [4] it was 0.0216 µM; in [5], 0.0634 µM; in assay [6], 0.034 µM. The GI50 in assay [7] was 0.015 µM; in assay [8], 0.147 µM; in [9], 0.0857 µM; in assay [10] it was 0.0595 µM. Besides, the TGI came to 0.145 µM in assay [1]; 0.544 µM in [2]; 0.262 µM in assay [3]; 0.153 µM in assay [4]; 0.198 µM in assay [5]; 0.12 µM in assay [6]. Further, the TGI turned out to be 0.0695 µM in [7], 0.486 µM in [8], 0.261 µM in assay [9] and 0.233 µM in assay [10].

Consider `O=C(/C=C\c1cccc([N+](=O)[O-])c1)c1ccccc1`, for which the GI50 in [1] is 2.01 µM; in assay [2], 2.36 µM; in assay [3] it was 2.07 µM; in assay [4] it was 0.568 µM; in [5], 2.01 µM; in [6], 2.91 µM. For the same compound, the GI50 in assay [7] is 1.46 µM; in assay [8], 2.81 µM; in assay [9] it was 2.53 µM; in [10] it was 7.68 µM. The TGI in assay [1] is 4.91 µM; in [2], 5.41 µM; in assay [3], 5.01 µM; in assay [4], > 100 µM; in [5], 5.15 µM; in [6], > 100 µM. Besides, the TGI came out at 3.93 µM in [7], 9.74 µM in assay [8], 5.8 µM in assay [9] and 29.5 µM in [10].

As to `CCOC(=O)/C(=C/c1cc(OC)ccc1OC)CC(=O)O`, the TGI in [1] is > 100 µM; in [2], > 100 µM; in assay [3] it was > 31.6 µM; in [4], > 31.6 µM; in assay [5], > 100 µM; in assay [6] it was > 31.6 µM. Further, the TGI was > 100 µM in [7], > 31.6 µM in assay [8], > 100 µM in assay [9] and > 100 µM in [10].

In the case of `N#CC(NC12CC3CC(CC(C3)C1)C2)c1ccccc1` (stereo not given), the TGI in [1], in assay [2], in assay [3], in assay [4], in assay [5] and in [6] was > 100 µM each time. Also, the TGI in [7], in assay [8], in [9] and in assay [10] was > 100 µM in each case.

Regarding `Cc1oncc1C(=O)Nc1ccc(C(F)(F)F)cc1`, the GI50 is 14.7 µM in assay [1]; 35.8 µM in assay [2]; 20.5 µM in [3]; 17.8 µM in [4]; 23.9 µM in assay [5]; 24.5 µM in assay [6]. In addition, the GI50 in assay [7] is 33.6 µM; in assay [8] it was 64.5 µM; in assay [9], 33.3 µM; in [10], 19.5 µM. The TGI in assay [1], in assay [2], in [3], in [4], in assay [5] and in [6] was > 100 µM each time. For the same compound, the TGI in [7], in assay [8], in assay [9] and in assay [10] was > 100 µM each time.

With `COC(=O)c1c2c(c[n+]([O-])c1C)C(=O)C(NCc1ccccc1)=CC2=O`, the GI50 in assay [1] was 0.51 µM; in [2] it was 0.608 µM; in assay [3], 0.127 µM; in assay [4], 0.512 µM; in [5] it was 1.05 µM; in assay [6] it was 0.256 µM. The GI50 in assay [7] is 0.31 µM; in [8] it was 0.604 µM; in [9], 1.27 µM; in assay [10], 0.885 µM. Moreover, the TGI in assay [1] is 1.89 µM; in assay [2], 3.03 µM; in assay [3], 0.294 µM; in assay [4], > 25.8 µM; in assay [5], 2.48 µM; in [6], 0.667 µM. The TGI in assay [7] came out at 1.57 µM; in assay [8], 2 µM; in assay [9] it was 3.18 µM; in assay [10], 2.15 µM.

`NC(=O)c1cccc(N)c1`: the GI50 in assay [1], in [2], in assay [3], in assay [4], in assay [5] and in [6] was > 100 µM throughout. Also, the GI50 in [7], in [8], in assay [9] and in assay [10] was > 100 µM each time. Also, the TGI in assay [1], in assay [2], in assay [3], in assay [4], in assay [5] and in assay [6] was > 100 µM throughout. In addition, the TGI in assay [7], in [8], in assay [9] and in assay [10] was > 100 µM in each case.

The values are drawn from PubChem BioAssay (NCI).
